Values quoted from earlier work in patent publication US20080286202A1, “Method of Diagnosing Prodromal Forms of Diseases Associated With Amyloid Deposition” (priority 2004, published 2008).

Conditions: in vivo

In the case of `COc1ccccc1N1CCN(CCN(c2ccccn2)[11C](=O)C2CCCCC2)CC1` [[^11C]WAY-100635], the “f1 (free level in plasma)” value is listed as 0.06.
